Laboratory results from patent publication US20180050993A1, “NOVEL FLUORINATED DERIVATIVES AS EGFR INHIBITORS USEFUL FOR TREATING CANCERS” (Trillium Therapeutics Inc., priority 2015, published 2018).
Structures can show the parent of a compound that is named as a salt. Where two headings read alike, the source gives them in different places.

Legend:
[1] = Brain concentrations after PO administration in rat, peak at 8 hours (Table 5); assay type: in vivo; settings: Table 5 (8 hours); for Kp at 8 h: brain/plasma, po, 50 mg/kg
P-gp = target: T1, P-gp (Homo sapiens, UniProt P08183); assay: Evaluation of P-gp efflux in Caco-2 cell monolayers; assay type: in vitro ADME;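 further: Caco-2 monolayers dosed apically or basolaterally with test compound at 5 µM in HBSS with HEPES and glucose, 37 °C, donor and receiver sampled after 120 min, LC/MS peak areas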
T1 construct: host or cells: Caco-2 (C2BBe1)

COLO 205 = assay: NCI screening panel, growth %; assay type: cell-based, human; settings: Colon
Experimental: (§1) After 24 h, two plates of each cell line are fixed in situ with TCA, to represent a measurement of the cell population for each cell line at the time of drug addition (Tz). Experimental drugs are solubilised in dimethyl sulfoxide at 400-fold the desired final maximum test concentration and stored frozen prior to use. At the time of drug addition, an aliquot of frozen concentrate is thawed and diluted to twice the desired final maximum test concentration with complete medium containing 50 μg/ml gentamicin. Additional four, 10-fold or log serial dilutions are made to provide a total of five drug concentrations plus control. Aliquots of 100 μl of these different drug dilutions are added to the appropriate microtiter wells already containing 100 μl of medium, resulting in the required final drug concentrations.
(§2) Following drug addition, the plates are incubated for an additional 48 h at 37° C., 5% CO2, 95% air, and 100% relative humidity. For adherent cells, the assay is terminated by the addition of cold TCA (trichloroacetic acid). Cells are fixed in situ by the gentle addition of 50 μl of cold 50% (w/v) TCA (final concentration, 10% TCA) and incubated for 60 minutes at 4° C. The supernatant is discarded, and the plates are washed five times with tap water and air dried. Sulforhodamine B (SRB) solution (100 μl) at 0.4% (w/v) in 1% acetic acid is added to each well, and plates are incubated for 10 minutes at room temperature. After staining, unbound dye is removed by washing five times with 1% acetic acid and the plates are air dried. Bound stain is subsequently solubilised with 10 mM trizma base, and the absorbance is read on an automated plate reader at a wavelength of 515 nm. For suspension cells, the methodology is the same except that the assay is terminated by fixing settled cells at the bottom of the wells by gently adding 50 μl of 80% TCA (final concentration, 16% TCA). Using the seven absorbance measurements [time zero, […], control growth, (C), and test growth in the presence of drug at the five concentration levels (Ti)], the percentage growth is calculated at each of the drug concentration levels. Percentage growth inhibition is calculated as: [(Ti−Tz)/(C−Tz)]×100 for concentrations in which Ti>/=Tz and [(Ti−Tz)/Tz]×100 for concentrations in which Ti<Tz.
(§3) Three dose response parameters are calculated for each experimental agent. […] The drug concentration resulting in total growth inhibition (TGI) is calculated from Ti=Tz. […] Values are calculated for each of these three parameters if the level of activity is reached. However, if the effect is not reached or is exceeded, the value for that parameter is expressed as greater or less than the maximum or minimum concentration tested.

DU-145 = assay: NCI screening panel, growth %; assay type: cell-based, human; settings: Prostate
Experimental: as §1, §2, §3

HS 578T = assay: NCI screening panel, growth %; assay type: cell-based, human; settings: Breast
Experimental: as §1, §2, §3

MCF7 = assay: NCI screening panel, growth %; assay type: cell-based, human; settings: Breast
Experimental: as §1, §2, §3

MDA-MB-231/ATCC = assay: NCI screening panel, growth %; assay type: cell-based, human; settings: Breast
Experimental: as §1, §2, §3

RXF 393 = assay: NCI screening panel, growth %; assay type: cell-based, human; settings: Renal
Experimental: as §1, §2, §3

SF-539 = assay: NCI screening panel, growth %; assay type: cell-based, human; settings: CNS
Experimental: as §1, §2, §3

SK-MEL-5 = assay: NCI screening panel, growth %; assay type: cell-based, human; settings: Melanoma
Experimental: as §1, §2, §3

SW-620 = assay: NCI screening panel, growth %; assay type: cell-based, human; settings: Colon
Experimental: as §1, §2, §3

UO-31 = assay: NCI screening panel, growth %; assay type: cell-based, human; settings: Renal
Experimental: as §1, §2, §3

EPHA6 = target: T2, EPHA6 (Homo sapiens, UniProt Q9UF33); assay: Binding constants (Kd) for EPHA6, kinase competition binding with qPCR readout
T2 sequence (Q9UF33 23-1036): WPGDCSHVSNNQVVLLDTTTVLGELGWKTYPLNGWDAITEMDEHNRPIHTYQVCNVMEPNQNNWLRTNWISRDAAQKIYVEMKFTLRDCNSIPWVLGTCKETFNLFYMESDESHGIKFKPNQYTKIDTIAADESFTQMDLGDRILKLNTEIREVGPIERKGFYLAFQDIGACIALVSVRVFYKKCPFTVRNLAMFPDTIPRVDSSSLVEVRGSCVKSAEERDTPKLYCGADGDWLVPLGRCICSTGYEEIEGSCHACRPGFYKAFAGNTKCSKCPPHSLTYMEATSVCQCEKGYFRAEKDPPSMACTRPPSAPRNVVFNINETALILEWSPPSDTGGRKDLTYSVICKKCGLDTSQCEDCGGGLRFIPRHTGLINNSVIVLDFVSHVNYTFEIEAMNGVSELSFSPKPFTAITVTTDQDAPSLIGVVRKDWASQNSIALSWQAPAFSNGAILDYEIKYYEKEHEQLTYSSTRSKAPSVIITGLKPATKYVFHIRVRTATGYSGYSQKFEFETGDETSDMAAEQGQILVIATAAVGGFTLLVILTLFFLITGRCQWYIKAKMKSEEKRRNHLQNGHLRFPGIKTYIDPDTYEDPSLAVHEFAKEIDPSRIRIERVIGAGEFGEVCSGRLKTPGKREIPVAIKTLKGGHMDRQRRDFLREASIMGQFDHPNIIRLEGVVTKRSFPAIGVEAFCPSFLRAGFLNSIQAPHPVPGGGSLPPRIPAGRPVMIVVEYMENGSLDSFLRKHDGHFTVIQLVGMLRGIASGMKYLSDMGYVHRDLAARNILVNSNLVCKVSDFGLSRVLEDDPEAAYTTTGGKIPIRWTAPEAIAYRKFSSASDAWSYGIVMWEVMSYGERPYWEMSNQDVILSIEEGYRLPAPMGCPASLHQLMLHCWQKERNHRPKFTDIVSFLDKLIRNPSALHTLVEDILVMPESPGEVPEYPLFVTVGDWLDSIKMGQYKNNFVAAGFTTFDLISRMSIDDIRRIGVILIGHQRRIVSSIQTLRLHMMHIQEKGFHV

[2] = Sprague-Dawley, brain, PO 50 mg/kg

T1 sequence (P08183 whole entry): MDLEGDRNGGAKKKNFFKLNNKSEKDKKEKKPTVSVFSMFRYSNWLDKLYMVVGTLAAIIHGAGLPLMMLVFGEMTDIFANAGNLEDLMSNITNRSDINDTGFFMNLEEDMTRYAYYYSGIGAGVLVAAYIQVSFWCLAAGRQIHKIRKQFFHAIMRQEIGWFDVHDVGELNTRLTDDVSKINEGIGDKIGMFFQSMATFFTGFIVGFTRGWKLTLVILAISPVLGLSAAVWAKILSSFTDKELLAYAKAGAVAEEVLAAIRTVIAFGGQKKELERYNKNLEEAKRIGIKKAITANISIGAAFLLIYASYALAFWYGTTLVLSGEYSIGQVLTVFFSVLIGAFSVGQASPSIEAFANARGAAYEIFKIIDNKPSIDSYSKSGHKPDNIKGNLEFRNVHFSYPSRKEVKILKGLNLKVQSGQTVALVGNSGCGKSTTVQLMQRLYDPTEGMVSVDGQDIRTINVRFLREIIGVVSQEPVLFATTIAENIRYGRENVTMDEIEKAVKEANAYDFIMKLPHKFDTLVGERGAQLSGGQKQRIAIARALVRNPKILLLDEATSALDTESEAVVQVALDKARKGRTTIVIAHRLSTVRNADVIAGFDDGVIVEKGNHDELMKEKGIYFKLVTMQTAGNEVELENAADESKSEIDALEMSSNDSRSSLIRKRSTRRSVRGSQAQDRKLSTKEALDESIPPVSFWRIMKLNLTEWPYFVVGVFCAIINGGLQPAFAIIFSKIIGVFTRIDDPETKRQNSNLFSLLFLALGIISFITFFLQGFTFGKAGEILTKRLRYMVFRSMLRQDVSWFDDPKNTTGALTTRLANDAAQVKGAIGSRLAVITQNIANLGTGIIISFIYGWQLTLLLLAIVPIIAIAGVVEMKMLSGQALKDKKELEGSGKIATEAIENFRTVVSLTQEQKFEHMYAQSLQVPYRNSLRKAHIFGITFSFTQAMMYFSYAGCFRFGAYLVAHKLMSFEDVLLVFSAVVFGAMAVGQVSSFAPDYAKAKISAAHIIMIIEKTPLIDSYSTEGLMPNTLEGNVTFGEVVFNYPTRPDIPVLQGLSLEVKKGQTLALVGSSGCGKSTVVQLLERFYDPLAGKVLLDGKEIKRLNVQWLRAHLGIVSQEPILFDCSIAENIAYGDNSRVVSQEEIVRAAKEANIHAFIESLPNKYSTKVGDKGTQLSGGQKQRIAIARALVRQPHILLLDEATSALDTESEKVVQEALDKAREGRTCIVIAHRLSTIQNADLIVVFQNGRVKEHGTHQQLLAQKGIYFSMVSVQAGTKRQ

Fc1ccc(Nc2ncnc3cc(OCCOC(F)F)c(OCCOC(F)F)cc23)c(F)c1Cl [Compound 2D•HCl, N-(3-chloro-2,4-difluoro-phenyl)-6,7-bis[2-(difluoromethoxy)ethoxy]quinazolin-4-amine]
Cmax [1, 2]: 6340 ng/g
Tmax [1, 2]: 8 h
Kp at 8 h ([1]; Sprague-Dawley, read-out: AUCLast Ratio (Brain/Plasma)): 1.92
Kp at 8 h ([1]; Sprague-Dawley, read-out: Cmax Ratio (Brain/Plasma)): 2.07
AUCInf ([1]; brain, PO 50 mg/kg): 101339 ng·h/g
AUClast ([1]; brain, PO 50 mg/kg): 99996 ng·h/g
recovery at 120 min, 5 μM (P-gp; Caco-2, pH 7.4, with none (verapamil 0 μM), Caco-2, Verapamil 0 μM, read-out: Recovery (%) AP-BL): 21.8%
recovery at 120 min, 5 μM (P-gp; Caco-2, pH 7.4, with none (verapamil 0 μM), Caco-2, Verapamil 0 μM, read-out: Recovery (%) BL-AP): 30.4%
recovery at 120 min, 5 μM (P-gp; Caco-2, pH 7.4, with verapamil 100 μM, Caco-2, Verapamil 100 μM, read-out: Recovery (%) AP-BL): 29.7%
recovery at 120 min, 5 μM (P-gp; Caco-2, pH 7.4, with verapamil 100 μM, Caco-2, Verapamil 100 μM, read-out: Recovery (%) BL-AP): 28.9%
Papp A→B at 120 min, 5 μM (P-gp; pH 7.4, Caco-2, Verapamil 0 μM): 4.02 ×10⁻⁶ cm/s
Papp B→A at 120 min, 5 μM (P-gp; pH 7.4, Caco-2, Verapamil 0 μM): 2.33 ×10⁻⁶ cm/s
efflux ratio at 120 min, 5 µM (P-gp; pH 7.4, Caco-2, Verapamil 0 μM): 0.58
Growth % (COLO 205): 77.41%
Growth % (DU-145): 35.29%
Growth % (HS 578T): 68.48%
Growth % (MCF7): 66.06%
Growth % (MDA-MB-231/ATCC): 65.62%
Growth % (RXF 393): 37.95%
Growth % (SF-539): 73.76%
Growth % (SK-MEL-5): 74.60%
Growth % (SW-620): 91.49%
Growth % (UO-31): 15.03%
Kd (EPHA6): 2.5 nM
